Measurements from patent US8063229B2, “Antifungal triazole derivatives, method for the preparation thereof and pharmaceutical composition containing same” (Daewoong Pharmaceutical Co., Ltd., priority 2006, dated 2011).
Converted amounts (≈) assume the structure as drawn.

Columns and labels:
Candida tropicallis = assay: In vitro assay for antifungal activity (MIC80); format: cell-based; conditions: concentration at which 80% inhibition of fungus growth occurs, RPMI 1640, alamarBlue, 24 hours, duplicate; for MIC80: Candida
Procedure: (§1) Each fungal strain to be tested was inoculated onto Sabouraud dextrose agar, YM agar, and potato dextrose agar and cultured at 35° C. for two to three days. Single colonies of such of the yeast fungi were collected from the culture and suspended in 5 ml of 0.85% sterile saline, in an appropriate amount so that the absorbance at 530 nm became 0.108. The suspensions was diluted serially by 1:50 (RPMI 1640 media:sterile saline) and then further diluted by 1:20 (RPMI 1640 media:sterile saline) to prepare liquid inocula having a cell count ranging from 1.0×10^3 to 5.0×10^3 CFU/ml.
(§2) Antifungal samples were prepared by serially diluting each of the compounds of the present invention in RPMI 1640 media to concentrations range from 0.0156 to 32 μg/ml. As an excipient, DMSO was added to the antifungal sample to a final concentration of 1% (VAT). 0.1 ml of each of the serially diluted test solution was added to each well of 96 well plate, followed by adding 0.1 ml of each of the fungal inocula thereto.
(§3) At a given concentration of the test compound, the fungus growth was observed, after 24 hours, with the naked eye for all yeast species except for Cryptococcus neoformans, and the filamentous fungus growth was observed, after 48 hours. Also, using the growth indicator alamarBlue, MIC80, the concentration of the test compound at which 80% inhibition of the fungus growth occurs was determined based on the value observed for the negative control.

Candida krusei = assay: In vitro assay for antifungal activity (MIC80); format: cell-based; conditions: concentration at which 80% inhibition of fungus growth occurs, RPMI 1640, alamarBlue, 24 hours, duplicate; for MIC80: Pichia kudriavzevii
Procedure: as §1, §2, §3

Candida albicans [1] = assay: In vitro assay for antifungal activity (MIC80); format: cell-based; conditions: concentration at which 80% inhibition of fungus growth occurs, RPMI 1640, alamarBlue, 24 hours, duplicate; for MIC80: Candida albicans
Procedure: as §1, §2, §3

Cryptococcus neoformans = assay: In vitro assay for antifungal activity (MIC80); format: cell-based; conditions: concentration at which 80% inhibition of fungus growth occurs, RPMI 1640, alamarBlue, duplicate; for MIC80: Cryptococcus neoformans
Procedure: as §1, §2, §3

Candida parapsilosis = assay: In vitro assay for antifungal activity (MIC80); format: cell-based; conditions: concentration at which 80% inhibition of fungus growth occurs, RPMI 1640, alamarBlue, 24 hours, duplicate; for MIC80: Lodderomyces parapsilosis
Procedure: as §1, §2, §3

Candida glabrata = assay: In vitro assay for antifungal activity (MIC80); format: cell-based; conditions: concentration at which 80% inhibition of fungus growth occurs, RPMI 1640, alamarBlue, 24 hours, duplicate; for MIC80: Nakaseomyces glabratus
Procedure: as §1, §2, §3

[2] = Assay for subacute toxicity in mice; format: in vivo
Procedure: Subacute cytotoxicity tests were conducted by administering Example compounds 41 and 45, each suspended in aqueous 0.5% methylcellulose to mice once a day for 2 weeks.

Candida albicans [3] = assay: In vivo assay for antifungal activity (survival of infected mice); conditions: male mice, Candida albicans i.v.; 10 mg/kg orally once a day for seven days from 2 hours after infection; survival 28 days after infection
Procedure: 0.1 mL of a suspension containing 5×10^7 CFU/ml of Candida albicans was administered to each of 10 male mice by intravenous injection. 10 mg/kg of each of the test compounds to orally administer to the inoculated mouse 2 hours after the fungal infection. The test compound was administered once a day for seven days. The number of mice which survived the fungal infection for 28 days after the fungal infection was determined as % survival for each test group, and the results are given in Table 7: […]

[4] = mice, suspended in aqueous 0.5% methylcellulose, once a day for 2 weeks

MIC80 (Candida tropicallis) [µg/mL] | MIC80 (Candida krusei) [µg/mL] | MIC80 (Candida albicans [1]) [µg/mL] | MIC80 (Cryptococcus neoformans) [µg/mL] | MIC80 (Candida parapsilosis) [µg/mL] | MIC80 (Candida glabrata) [µg/mL] | SMILES | changes in the living states, organs, liver enzyme and liver weight [2, 4] | toxic syndromes [2, 4] | % Survival (Candida albicans [3]) [%] | MIC80 Candida tropicallis (Candida tropicallis) | MIC80 Candida krusei (Candida krusei) [µg/mL] | MIC80 Candida albicans (Candida albicans [1]) | MIC80 Cryptococcus neoformans (Cryptococcus neoformans) [µg/mL] | MIC80 Candida parapsilosis (Candida parapsilosis) | MIC80 Candida glabrata (Candida glabrata) [µg/mL] | toxic syndromes ([2]; mouse, in vivo)
1 (≈ 1.95 µM) | 2 (≈ 3.89 µM) | ≤ 0.015 | 0.25 (≈ 0.486 µM) | 0.125 (≈ 0.243 µM) | 8 (≈ 15.6 µM) | C[C@@H](n1cc(N2CCN(c3ccc(Cl)cc3)C2=O)cn1)[C@](O)(Cn1cncn1)c1ccc(F)cc1F [Example 1, 1-(4-Chlorophenyl)-3-(1-((2R,3R)-3-(2,4-difluorophenyl)-3-hydroxy-4-(1H-1,2,4-triazol-1-yl)butan-2-yl)-1H-pyrazol-4-yl)imidazolidin-2-one] |  |  |  |  |  |  |  |  |  | 
0.125 (≈ 0.244 µM) | 0.5 (≈ 0.977 µM) | ≤ 0.015 | 0.125 (≈ 0.244 µM) | ≤ 0.015 | 4 (≈ 7.81 µM) | C[C@@H](n1cc(-n2ccn(-c3ccc(Cl)cc3)c2=O)cn1)[C@](O)(Cn1cncn1)c1ccc(F)cc1F [Example 23, 3-(4-Chlorophenyl)-1-(1-((2R,3R)-3-(2,4-difluorophenyl)-3-hydroxy-4-(1H-1,2,4-triazol-1-yl)butan-2-yl)-1H-pyrazol-4-yl)-1H-imidazole-2(3H)-one] |  |  |  |  |  |  |  |  |  | 
0.062 (≈ 0.135 µM) | 0.5 (≈ 1.09 µM) | ≤ 0.015 | ≤ 0.015 | ≤ 0.015 | 1 (≈ 2.18 µM) | C[C@@H](n1cc(CCc2ccc(Cl)cc2)cn1)[C@](O)(Cn1cncn1)c1ccc(F)cc1F [Example 39, (2R,3R)-3-(4-(4-Chlorophenethyl)-1H-pyrazol-1-yl)-2-(2,4-difluorophenyl)-1-(1H-1,2,4-triazol-1-yl)butan-2-ol] |  |  |  |  |  |  |  |  |  | 
≤ 0.015 | 0.25 (≈ 0.569 µM) | ≤ 0.015 | 0.031 (≈ 0.0705 µM) | ≤ 0.015 | 2 (≈ 4.55 µM) | C[C@@H](n1cc(/C=C/c2ccc(F)cc2)cn1)[C@](O)(Cn1cncn1)c1ccc(F)cc1F [Example 40, (2R,3R,E)-2-(2,4-Difluorophenyl)-3-(4-(4-fluorostyryl)-1H-pyrazol-1-yl)-1-(1H-1,2,4-triazol-1-yl)butan-2-ol] |  |  |  |  |  |  |  |  |  | 

The remaining lines, values behind:

SMILES | MIC80 (Candida tropicallis) [µg/mL] | MIC80 (Candida krusei) [µg/mL] | MIC80 (Candida albicans [1]) [µg/mL] | MIC80 (Cryptococcus neoformans) [µg/mL] | MIC80 (Candida parapsilosis) [µg/mL] | MIC80 (Candida glabrata) [µg/mL] | changes in the living states, organs, liver enzyme and liver weight [2, 4] | toxic syndromes [2, 4] | % Survival (Candida albicans [3]) [%] | MIC80 Candida tropicallis (Candida tropicallis) | MIC80 Candida krusei (Candida krusei) [µg/mL] | MIC80 Candida albicans (Candida albicans [1]) | MIC80 Cryptococcus neoformans (Cryptococcus neoformans) [µg/mL] | MIC80 Candida parapsilosis (Candida parapsilosis) | MIC80 Candida glabrata (Candida glabrata) [µg/mL] | toxic syndromes ([2]; mouse, in vivo)
C[C@@H](n1cc(CCc2ccc(F)cc2)cn1)[C@](O)(Cn1cncn1)c1ccc(F)cc1F [Example 38, (2R,3R)-2-(2,4-Difluorophenyl)-3-(4-(4-fluorophenethyl)-1H-pyrazol-1-yl)-1-(1H-1,2,4-triazol-1-yl)butan-2-ol] | ≤ 0.015 | 0.25 (≈ 0.566 µM) | ≤ 0.015 | 0.125 (≈ 0.283 µM) | ≤ 0.015 | 2 (≈ 4.53 µM) |  |  |  |  |  |  |  |  |  | 
C[C@@H](n1cc(/C=C/c2ccc(Cl)cc2)cn1)[C@](O)(Cn1cncn1)c1ccc(F)cc1F [Example 41, (2R,3R,E)-3-(4-(4-Chlorostyryl)-1H-pyrazol-1-yl)-2-(2,4-difluorophenyl)-1-(1H-1,2,4-triazol-1-yl)butan-2-ol] | 0.125 (≈ 0.274 µM) | 0.5 (≈ 1.1 µM) | ≤ 0.015 | ≤ 0.015 | ≤ 0.015 | 1 (≈ 2.19 µM) | no changes | none of the mice were observed to suffer from toxic syndromes | 100 |  |  |  |  |  |  | 
C[C@@H](n1cc(C#Cc2ccc(F)cc2)cn1)[C@](O)(Cn1cncn1)c1ccc(F)cc1F [Example 45] |  |  |  |  |  |  |  |  | 100 | ≦0.015 μg/ml | 0.5 (≈ 1.14 µM) | ≦0.015 μg/ml | 0.062 (≈ 0.142 µM) | ≦0.015 μg/ml | 2 (≈ 4.57 µM) | none of the mice were observed to suffer from toxic syndromes
C[C@@H](n1cc(/C=C/c2cnccn2)cn1)[C@](O)(Cn1cncn1)c1ccc(F)cc1F [Example 53, (2R,3R,E)-2-(2,4-Difluorophenyl)-3-(4-(2-(pyrazin-2-yl)vinyl)-1H-pyrazol-1-yl)-1-(1H-1,2,4-triazol-1-yl)butan-2-ol] |  | 4 (≈ 9.45 µM) | 0.125 (≈ 0.295 µM) | 1 (≈ 2.36 µM) | 0.125 (≈ 0.295 µM) |  |  |  |  |  |  |  |  |  |  | 
OC(Cn1cncn1)(Cn1cncn1)c1ccc(F)cc1F [Fluconazole, fluconazole, reference compound] | > 32 | 4 (≈ 13.1 µM) | 4 (≈ 13.1 µM) | 32 (≈ 104 µM) | > 32 | > 32 |  |  | 50 |  |  |  |  |  |  | 
